In US12414983B2, “CD200AR ligands for cancer immunotherapy” (REGENTS OF THE UNIVERSITY OF MINNESOTA, priority 2019, dated 2025):

Columns and labels:
Human CD14+ cells = test: Cytokine measurements in CD14+ cells pulsed with CD200AR-L peptide; type: cell-based; settings: for secretion of inflammatory cytokines from CD14+ cells: selection among 61 alanine-substituted peptides; for IL-1β in supernatant / TNFα in supernatant: CD14+ cells pulsed with peptide, 48 h, compared with non-pulsed controls
Experimental: Cytokine measurements. Human CD14^+ cells (5×10^5) were isolated from peripheral blood mononuclear cells (PBMCs) using anti-CD14 beads (BD Biosciences, San Jose, CA), typically yielding ≥70% recovery and ≥90% purity. Cells were pulsed with 2 μM CD200AR-L peptide and incubated for 48 h, after which the supernatants were analyzed by bead array for cytokine production (BD Biosciences, San Jose, CA).

CD14+ cells [1] = test: RNAseq / NanoString gene expression analysis of pulsed CD14+ cells; type: cell-based, human; settings: for mRNA expression of TNF-regulated cytokines: NanoString platform, FIG. 3b; for mRNA expression of cytokines released in response to TNF signaling: RNAseq, CD14+ cells
From the text: Nanostring gene expression analysis: Total RNA from CD14^+ cells was sent to New Zealand Genomics Limited (Dunedin, New Zealand) to measure the expression of genes that are differentially expressed during inflammation (nCounter GX, NanoString Technologies, Seattle, WA, USA). Briefly, total RNA was extracted from CD14^+ cells (MagJET RNA kit, Thermo Fisher Scientific, Waltham, MA) using the protocol adapted for tissue (KingFisher Duo machine, Thermo Fisher Scientific, Waltham, MA). RNA samples were then quantified (Qubit® 2.0 fluorometer, Thermo Fisher Scientific) and subjected to RNA integrity analysis (2100 Bioanalyzer, Agilent Technologies, Santa Clara, CA). Probes for the genes encoding CD44 (NM_001001392.1); NANOG (NM_024865.2); OCT4 (NM_002701.4); STAT3 (NM_139276.2); and the housekeeping genes glucuronidase beta (NM_000181.1), clathrin heavy chain (NM 4859.2), and hypoxanthine phosphoribosyltransferase 1 (NM_000194.1) were designed and manufactured by NanoString Technologies.
Expression data obtained with NanoString GX were analyzed by using nSolver Analysis Software 3.0 (nanostring.com/products/nSolver) with default settings, and normalized to housekeeping genes. nSolver was used to perform cluster analysis and to generate heat maps by using Java Treeview Version 1.1.6r4. Pathway analysis was performed by using the PathCards Pathway Unification Database (pathcards.genecards.org). Student's t-tests were used to determine significant differences (p<0.05).

CD14+ cells [2] = test: Dendritic cell maturation: phenotyping for CD80, CD86, HLA-DR; type: cell-based, human; settings: peptide alone compared with GM-CSF+IL4, p<0.0001
Experimental: FIGS. 4A-4D. Targeting CD200 activation receptors enhances dendritic cell maturation. (FIGS. 4A, 4B) CD14 purified cells were pulsed with (FIG. 4A) GM-CSF+IL4 or equal molar ratios of peptides P1A8, P2A0, or P4A10 or (FIG. 4B) GM-CSF+IL4 plus equal molar ratios of peptides P1A8, P2A0, or P4A10 and incubated for 48 h. Cells were harvested and phenotyped for CD80, CD86, and HLA-DR. (FIG. 4C) Immature dendritic cells from donors with or without CMV were pulsed with the CMV antigen pp65+/−equal molar ratios of peptides P1A8, P2A0, or P4A10. Cells were washed, and autologous T-cells were added back and incubated for a further 48 h. Supernatants were analyzed for IFNγ production. (FIG. 4D) Immature dendritic cells were pulsed with the CMV antigen pp65+/−P4A10. After the cells were washed, autologous T-cells were added back and incubated for a further 48 h. Supernatants were analyzed for IFNγ, IL-6, TNFα and RANTES content. Error bars represent standard deviation (n=3 healthy donors/group, *P<0.05, **P<0.005, ***P<0.0005 by t-test). The data represent three separate healthy donors. Black bars represent CMV-negative donors.
Targeting CD200 activation receptors enhances dendritic cell maturation. TNF-regulated cytokines (Table 1) have been implicated in dendritic cell maturation. […] To substantiate this, CD14^+ cells were isolated from healthy human donors and pulsed with GM-CSF+IL4, P1A8, P2A0, or P4A10 27. Cells pulsed with P1A8, P2A0, and P4A10 expressed higher levels of the co-stimulatory molecules CD80, CD86, and HLA-DR than cells treated with GM-CSF+IL4 (p<0.0001; FIG. 4a). Moreover, we observed synergistic upregulation of CD80/86 and HLA-DR when CD14^+ cells were incubated with GM-CSF+IL4 and each of the peptides (p<0.0001) (FIG. 4b).

[3] = system: immature dendritic cells (iDCs) and autologous T-cells; test: CMV assay: iDCs pulsed with pp65 +/- peptide, then co-incubated with T-cells; type: cell-based, human; settings: for antigen-specific response, production of IFNγ: pp65+CD200AR-L peptide compared with pp65 alone
Experimental: Dendritic cell differentiation. Cytomegalovirus (CMV)-positive HLA-A2^+ lymphocyte packs were obtained from the American Red Cross, and CD14^+ cells were purified. Approximately 1×10^8 CD14^+ cells were cultured in polystyrene tissue-culture flasks at 37° C. in 5% CO2. GM-CSF (25 ng/mL) and IL-4 (40 ng/mL) were both added on days 3 and 5 to derive immature dendritic cells (iDCs).
CMV assay. iDCs (5×10^5) were pulsed with 10 μg of CMV antigen peptide pp65495-503 (NLVPMVATV) and cultured as described above. The iDCs were then washed three times, and 5×10^5 CD8^+ T-cells from CMV-positive donors were co-incubated with the pulsed iDCs. CMV-negative PBMCs were used as a negative control. Supernatants were collected after 48 h of incubation and analyzed for IFNγ production by cytometric bead array (BD Biosciences).
To assess the effects of P1A8, P2A0, and P4A10 on the antigen-specific response, we measured IFNγ release in the following assay. iDCs were pulsed with the CMV antigen pp65 with and without an equimolar amount of P1A8, P2A0, or P4A10. Autologous T-cells were then added and incubated with the iDCs for 48 h, after which IFNγ production was measured in the supernatants. Exposure to pp65 increased T-cell IFNγ production approximately 4-fold (FIG. 4c). Co-treatment of iDCs with pp65 and P1A8, P2A0, or P4A10 increased IFNγ release by an additional 2- to 3-fold over pp65 alone.

T-lymphocytes = test: P4A10 priming prior to antigen presentation, CD200R1 expression; type: cell-based; settings: not observed in mock-treated cells, FIG. 7d
From the text: The efficacy of the P4A10+autologous tumor lysate strategy in this context creates an interesting conundrum. The T-cells that respond to APC presentation following stimulation express the inhibitory CD200R129. The immune-stimulatory effects of these primed T-cells, therefore, are expected to be blunted upon entry into a glioblastoma microenvironment that is replete with soluble and tumor-expressed CD200. […] Such suppression was not observed in mock-treated cells. Similar downregulation of PD-1 was observed on APCs (p=0.005, FIG. 7c).

Splenocytes = Splenocytes pulsed with CD200 or PD-L1 +/- mCD200AR-L, flow cytometry for CTLA4 and PD-L1; type: cell-based; settings: splenocytes pulsed with CD200 or PD-L1
Experimental: FIGS. 14A-14C. […] Splenocytes were pulsed with CD200, PD-L1+/−mCD200AR-L. Cells were analyzed by flow cytometry for the (FIG. 14A) CD4^+CTLA4^+, (FIG. 14B) CD8^+CTLA4^+or (FIG. 14C) CD11b^+PD-L1^+ populations. Error bars are representative of n=2 *P<0.005, **P<0.0001.
We propose that soluble CD200 and PD-L1 inhibit T cell activation through multiple checkpoints (FIG. 10). Therefore, the effect of multiple suppressive molecules (CD200 and PD-L1) on T cell inhibition was investigated. […] In addition, following PD-L1 treatment, an upregulation of PD-L1 on CD11b and an upregulation of CTLA4 was observed on T cells. Being CTLA4 and PD-L1 propagate separate inhibitory signals, it was hypothesized that PD-L1 inhibits T cell activation through 1) direct CD200 and PD-L1 on T cells and 2) direct PD-L1 (on APCs)/PD-I (on […]) producing cytokines upregulating CTLA4, which would explain the enhanced responses seen in combination α-PD-1 and α-CTLA4 treatments. However, neither of them inhibit CD200 effect on T cells.
We next looked at the effects of CD200AR-L on T cell inhibition. […] Being CTLA4 and PD-L1 propagate separate inhibitory signals, we hypothesize that PD-L1 inhibits T cell activation through two separate mechanisms, 1) through direct PD-L1 (on APCs)/PD-I (on T cells) interactions and through cytokine production following PD-L1 binding to the PD-1 on CD11b cell, which would explain the enhanced responses seen in combination α-PD-1 and α-CTLA4 treatments.

Molecule | secretion of inflammatory cytokines from CD14+ cells (Human CD14+ cells) | IL-1β in supernatant (Human CD14+ cells) | TNFα in supernatant (Human CD14+ cells) | antigen-specific response, production of IFNγ [3] | other results
NITLEDEGCYMCLFN (Ac-NITLEDEGCYMCLFN-NH2; cysteine pairing not given here; listed as Homo sapiens) [P2A0] | maximally stimulated |  |  |  | mRNA expression of TNF-regulated cytokines (CD14+ cells [1]): most potently and consistently induced; mRNA expression of cytokines released in response to TNF signaling (CD14+ cells [1]): notable increase; levels of co-stimulatory molecules CD80, CD86, and HLA-DR (CD14+ cells [2]): higher levels
VTFSENHGVVIAPAY (Ac-VTFSENHGVVIAPAY-NH2; listed as Homo sapiens) [P3A12] | maximally stimulated |  |  |  | 
NITLADEGCYMCLFN (Ac-NITLADEGCYMCLFN-NH2; cysteine pairing not given here; listed as Homo sapiens) [P2A5] | maximally stimulated |  |  |  | 
VTFSENHGVVIQPAY (Ac-VTFSENHGVVIQPAY-NH2; listed as Homo sapiens) [P3] |  | statistically significant increases | statistically significant increases | significant antigen-specific response | 
CLFNTFGFGKISGTA (Ac-CLFNTFGFGKISGTA-NH2; listed as Homo sapiens) [P4] |  | statistically significant increases | statistically significant increases | significant antigen-specific response | 
NLVPMVATV [pp65, CMV antigen peptide pp65495-503, reference compound] |  |  |  |  | increase of T-cell IFNγ production ([3]; exposure to pp65 alone, FIG. 4c): approximately 4 fold
IVTWQKKKAVSPENM (Ac-IVTWQKKKAVSPENM-NH2; listed as Homo sapiens) [P1] |  | statistically significant increases | statistically significant increases | significant antigen-specific response | 
NITLEDEGCYMCLFN (Ac-NITLEDEGCYMCLFN-NH2; cysteine pairing not given here; listed as Homo sapiens) [P2] |  | statistically significant increases | statistically significant increases | significant antigen-specific response | 
CLFNTFGFGAISGTA (Ac-CLFNTFGFGAISGTA-NH2; listed as Homo sapiens) [P4A10] | maximally stimulated |  |  |  | CD200R1 expression (T-lymphocytes): suppressed; mRNA expression of TNF-regulated cytokines (CD14+ cells [1]): most potently and consistently induced; mRNA expression of cytokines released in response to TNF signaling (CD14+ cells [1]): notable increase; levels of co-stimulatory molecules CD80, CD86, and HLA-DR (CD14+ cells [2]): higher levels
CD200: CD200 immune checkpoint protein used to pulse splenocytes (protein, UniProt O54901 31-278, looked up) OX-2 membrane glycoprotein: QVEVVTQDERKALHTTASLRCSLKTSQEPLIVTWQKKKAVSPENMVTYSKTHGVVIQPAYKDRINVTELGLWNSSITFWNTTLEDEGCYMCLFNTFGSQKVSGTACLTLYVQPIVHLHYNYFEDHLNITCSATARPAPAISWKGTGTGIENSTESHFHSNGTTSVTSILRVKDPKTQVGKEVICQVLYLGNVIDYKQSLDKGFWFSVPLLLSIVSLVILLVLISILLYWKRHRNQERGESSQGMQRMK |  |  |  |  | CTLA4 on CD4 cells (Splenocytes): upregulation; CTLA4 on CD8 cells (Splenocytes): not on CD8 cells
